# Test results taken from BigSolDB 2.1.
structure (smiles),measurement,setting,value
O=C(O)COc1ccc(Cl)cc1Cl,solubility (mole fraction),"in 2-butanone, 278.15 K",0.0937
same,solubility (mole fraction),"in 2-butanone, 283.15 K",0.103
same,solubility (mole fraction),"in 2-butanone, 288.15 K",0.112
same,solubility (mole fraction),"in 2-butanone, 293.15 K",0.123
same,solubility (mole fraction),"in 2-butanone, 298.15 K",0.134
same,solubility (mole fraction),"in 2-butanone, 303.15 K",0.144
same,solubility (mole fraction),"in 2-butanone, 308.15 K",0.156
same,solubility (mole fraction),"in 2-butanone, 313.15 K",0.169
same,solubility (mole fraction),"in 2-butanone, 318.15 K",0.184
same,solubility (mole fraction),"in 2-butanone, 323.15 K",0.201
same,solubility (mole fraction),"in MTBE, 278.15 K",0.087
same,solubility (mole fraction),"in MTBE, 283.15 K",0.0961
same,solubility (mole fraction),"in MTBE, 288.15 K",0.106
same,solubility (mole fraction),"in MTBE, 293.15 K",0.116
same,solubility (mole fraction),"in MTBE, 298.15 K",0.126
same,solubility (mole fraction),"in MTBE, 303.15 K",0.137
same,solubility (mole fraction),"in MTBE, 308.15 K",0.148
same,solubility (mole fraction),"in MTBE, 313.15 K",0.161
same,solubility (mole fraction),"in MTBE, 318.15 K",0.175
same,solubility (mole fraction),"in MTBE, 323.15 K",0.19
same,solubility (mole fraction),"in acetone, 278.15 K",0.107
same,solubility (mole fraction),"in acetone, 283.15 K",0.116
same,solubility (mole fraction),"in acetone, 288.15 K",0.127
same,solubility (mole fraction),"in acetone, 293.15 K",0.137
same,solubility (mole fraction),"in acetone, 298.15 K",0.15
same,solubility (mole fraction),"in acetone, 303.15 K",0.163
same,solubility (mole fraction),"in acetone, 308.15 K",0.176
same,solubility (mole fraction),"in acetone, 313.15 K",0.191
same,solubility (mole fraction),"in acetone, 318.15 K",0.205
same,solubility (mole fraction),"in acetone, 323.15 K",0.222
same,solubility (mole fraction),"in acetonitrile, 278.15 K",0.0178
same,solubility (mole fraction),"in acetonitrile, 283.15 K",0.0246
same,solubility (mole fraction),"in acetonitrile, 288.15 K",0.0306
same,solubility (mole fraction),"in acetonitrile, 293.15 K",0.0401
same,solubility (mole fraction),"in acetonitrile, 298.15 K",0.0499
same,solubility (mole fraction),"in acetonitrile, 303.15 K",0.0572
same,solubility (mole fraction),"in acetonitrile, 308.15 K",0.0672
same,solubility (mole fraction),"in acetonitrile, 313.15 K",0.078
same,solubility (mole fraction),"in acetonitrile, 318.15 K",0.0888
same,solubility (mole fraction),"in acetonitrile, 323.15 K",0.103
same,solubility (mole fraction),"in ethanol, 278.15 K",0.0654
same,solubility (mole fraction),"in ethanol, 283.15 K",0.0797
same,solubility (mole fraction),"in ethanol, 288.15 K",0.0975
same,solubility (mole fraction),"in ethanol, 293.15 K",0.117
same,solubility (mole fraction),"in ethanol, 298.15 K",0.141
same,solubility (mole fraction),"in ethanol, 303.15 K",0.167
same,solubility (mole fraction),"in ethanol, 308.15 K",0.192
same,solubility (mole fraction),"in ethanol, 313.15 K",0.223
same,solubility (mole fraction),"in ethanol, 318.15 K",0.255
same,solubility (mole fraction),"in ethanol, 323.15 K",0.292
same,solubility (mole fraction),"in ethyl acetate, 278.15 K",0.0548
same,solubility (mole fraction),"in ethyl acetate, 283.15 K",0.0622
same,solubility (mole fraction),"in ethyl acetate, 288.15 K",0.0703
same,solubility (mole fraction),"in ethyl acetate, 293.15 K",0.0798
same,solubility (mole fraction),"in ethyl acetate, 298.15 K",0.0894
same,solubility (mole fraction),"in ethyl acetate, 303.15 K",0.101
same,solubility (mole fraction),"in ethyl acetate, 308.15 K",0.113
same,solubility (mole fraction),"in ethyl acetate, 313.15 K",0.126
same,solubility (mole fraction),"in ethyl acetate, 318.15 K",0.14
same,solubility (mole fraction),"in ethyl acetate, 323.15 K",0.155
same,solubility (mole fraction),"in isobutanol, 278.15 K",0.0317
same,solubility (mole fraction),"in isobutanol, 283.15 K",0.0402
same,solubility (mole fraction),"in isobutanol, 288.15 K",0.0508
same,solubility (mole fraction),"in isobutanol, 293.15 K",0.0627
same,solubility (mole fraction),"in isobutanol, 298.15 K",0.0778
same,solubility (mole fraction),"in isobutanol, 303.15 K",0.0933
same,solubility (mole fraction),"in isobutanol, 308.15 K",0.112
same,solubility (mole fraction),"in isobutanol, 313.15 K",0.135
same,solubility (mole fraction),"in isobutanol, 318.15 K",0.161
same,solubility (mole fraction),"in isobutanol, 323.15 K",0.19
same,solubility (mole fraction),"in isobutyl acetate, 278.15 K",0.0365
same,solubility (mole fraction),"in isobutyl acetate, 283.15 K",0.0427
same,solubility (mole fraction),"in isobutyl acetate, 288.15 K",0.0494
same,solubility (mole fraction),"in isobutyl acetate, 293.15 K",0.0574
same,solubility (mole fraction),"in isobutyl acetate, 298.15 K",0.0657
same,solubility (mole fraction),"in isobutyl acetate, 303.15 K",0.0747
same,solubility (mole fraction),"in isobutyl acetate, 308.15 K",0.0846
same,solubility (mole fraction),"in isobutyl acetate, 313.15 K",0.0958
same,solubility (mole fraction),"in isobutyl acetate, 318.15 K",0.11
same,solubility (mole fraction),"in isobutyl acetate, 323.15 K",0.128
same,solubility (mole fraction),"in isopropanol, 278.15 K",0.0424
same,solubility (mole fraction),"in isopropanol, 283.15 K",0.0525
same,solubility (mole fraction),"in isopropanol, 288.15 K",0.0646
same,solubility (mole fraction),"in isopropanol, 293.15 K",0.0783
same,solubility (mole fraction),"in isopropanol, 298.15 K",0.0942
same,solubility (mole fraction),"in isopropanol, 303.15 K",0.113
same,solubility (mole fraction),"in isopropanol, 308.15 K",0.132
same,solubility (mole fraction),"in isopropanol, 313.15 K",0.153
same,solubility (mole fraction),"in isopropanol, 318.15 K",0.176
same,solubility (mole fraction),"in isopropanol, 323.15 K",0.201
same,solubility (mole fraction),"in methyl acetate, 278.15 K",0.0602
same,solubility (mole fraction),"in methyl acetate, 283.15 K",0.0685
same,solubility (mole fraction),"in methyl acetate, 288.15 K",0.0761
same,solubility (mole fraction),"in methyl acetate, 293.15 K",0.0846
same,solubility (mole fraction),"in methyl acetate, 298.15 K",0.0976
same,solubility (mole fraction),"in methyl acetate, 303.15 K",0.106
same,solubility (mole fraction),"in methyl acetate, 308.15 K",0.119
same,solubility (mole fraction),"in methyl acetate, 313.15 K",0.131
same,solubility (mole fraction),"in methyl acetate, 318.15 K",0.144
same,solubility (mole fraction),"in methyl acetate, 323.15 K",0.16
same,solubility (mole fraction),"in n-butanol, 278.15 K",0.0521
same,solubility (mole fraction),"in n-butanol, 283.15 K",0.0644
same,solubility (mole fraction),"in n-butanol, 288.15 K",0.079
same,solubility (mole fraction),"in n-butanol, 293.15 K",0.0986
same,solubility (mole fraction),"in n-butanol, 298.15 K",0.127
same,solubility (mole fraction),"in n-butanol, 303.15 K",0.146
same,solubility (mole fraction),"in n-butanol, 308.15 K",0.17
same,solubility (mole fraction),"in n-butanol, 313.15 K",0.198
same,solubility (mole fraction),"in n-butanol, 318.15 K",0.231
same,solubility (mole fraction),"in n-butanol, 323.15 K",0.27
same,solubility (mole fraction),"in n-butyl acetate, 278.15 K",0.0486
same,solubility (mole fraction),"in n-butyl acetate, 283.15 K",0.0535
same,solubility (mole fraction),"in n-butyl acetate, 288.15 K",0.0604
same,solubility (mole fraction),"in n-butyl acetate, 293.15 K",0.0678
same,solubility (mole fraction),"in n-butyl acetate, 298.15 K",0.0749
same,solubility (mole fraction),"in n-butyl acetate, 303.15 K",0.0832
same,solubility (mole fraction),"in n-butyl acetate, 308.15 K",0.0931
same,solubility (mole fraction),"in n-butyl acetate, 313.15 K",0.106
same,solubility (mole fraction),"in n-butyl acetate, 318.15 K",0.12
same,solubility (mole fraction),"in n-butyl acetate, 323.15 K",0.136
same,solubility (mole fraction),"in n-pentanol, 278.15 K",0.0537
same,solubility (mole fraction),"in n-pentanol, 283.15 K",0.0701
same,solubility (mole fraction),"in n-pentanol, 288.15 K",0.0866
same,solubility (mole fraction),"in n-pentanol, 293.15 K",0.107
same,solubility (mole fraction),"in n-pentanol, 298.15 K",0.131
same,solubility (mole fraction),"in n-pentanol, 303.15 K",0.155
same,solubility (mole fraction),"in n-pentanol, 308.15 K",0.182
same,solubility (mole fraction),"in n-pentanol, 313.15 K",0.211
same,solubility (mole fraction),"in n-pentanol, 318.15 K",0.243
same,solubility (mole fraction),"in n-pentanol, 323.15 K",0.281
same,solubility (mole fraction),"in n-propanol, 278.15 K",0.0486
same,solubility (mole fraction),"in n-propanol, 283.15 K",0.0602
same,solubility (mole fraction),"in n-propanol, 288.15 K",0.0731
same,solubility (mole fraction),"in n-propanol, 293.15 K",0.0911
same,solubility (mole fraction),"in n-propanol, 298.15 K",0.11
same,solubility (mole fraction),"in n-propanol, 303.15 K",0.131
same,solubility (mole fraction),"in n-propanol, 308.15 K",0.152
same,solubility (mole fraction),"in n-propanol, 313.15 K",0.179
same,solubility (mole fraction),"in n-propanol, 318.15 K",0.207
same,solubility (mole fraction),"in n-propanol, 323.15 K",0.236
same,solubility (mole fraction),"in sec-butanol, 278.15 K",0.043
same,solubility (mole fraction),"in sec-butanol, 283.15 K",0.0535
same,solubility (mole fraction),"in sec-butanol, 288.15 K",0.0665
same,solubility (mole fraction),"in sec-butanol, 293.15 K",0.0809
same,solubility (mole fraction),"in sec-butanol, 298.15 K",0.098
same,solubility (mole fraction),"in sec-butanol, 303.15 K",0.117
same,solubility (mole fraction),"in sec-butanol, 308.15 K",0.139
same,solubility (mole fraction),"in sec-butanol, 313.15 K",0.162
same,solubility (mole fraction),"in sec-butanol, 318.15 K",0.186
same,solubility (mole fraction),"in sec-butanol, 323.15 K",0.213
